Assay results: patent US12415794B2 (Edgewise Therapeutics, Inc., priority 2018, dated 2025)
pIC50: −log10 of the molar value.

Legend:
[1] = target: skeletal myofibrils (myosin ATPase); test: Skeletal Myofibril ATPase Assay; type: biochemical
Outline: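 Rates of NADH loss (A340, kinetic read over 45 min) report ADP generation by myofibrillar myosin, coupled through pyruvate kinase and lactate dehydrogenase; pCa buffer at pH 7.0. IC50 fitted by 4-parameter logistic after normalizing to 1% DMSO controls; cardiac myofibrils served for selectivity.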

[2] = target: T1, cardiac myofibrils (myosin ATPase); test: Cardiac Myofibril ATPase Assay (counter screen); type: biochemical; conditions: myofibrils 1.0 mg/mL, KCl omitted
T1 construct: frozen myofibril pellets obtained from cardiac tissue; from tissue
T1 sequence (P12883 whole entry): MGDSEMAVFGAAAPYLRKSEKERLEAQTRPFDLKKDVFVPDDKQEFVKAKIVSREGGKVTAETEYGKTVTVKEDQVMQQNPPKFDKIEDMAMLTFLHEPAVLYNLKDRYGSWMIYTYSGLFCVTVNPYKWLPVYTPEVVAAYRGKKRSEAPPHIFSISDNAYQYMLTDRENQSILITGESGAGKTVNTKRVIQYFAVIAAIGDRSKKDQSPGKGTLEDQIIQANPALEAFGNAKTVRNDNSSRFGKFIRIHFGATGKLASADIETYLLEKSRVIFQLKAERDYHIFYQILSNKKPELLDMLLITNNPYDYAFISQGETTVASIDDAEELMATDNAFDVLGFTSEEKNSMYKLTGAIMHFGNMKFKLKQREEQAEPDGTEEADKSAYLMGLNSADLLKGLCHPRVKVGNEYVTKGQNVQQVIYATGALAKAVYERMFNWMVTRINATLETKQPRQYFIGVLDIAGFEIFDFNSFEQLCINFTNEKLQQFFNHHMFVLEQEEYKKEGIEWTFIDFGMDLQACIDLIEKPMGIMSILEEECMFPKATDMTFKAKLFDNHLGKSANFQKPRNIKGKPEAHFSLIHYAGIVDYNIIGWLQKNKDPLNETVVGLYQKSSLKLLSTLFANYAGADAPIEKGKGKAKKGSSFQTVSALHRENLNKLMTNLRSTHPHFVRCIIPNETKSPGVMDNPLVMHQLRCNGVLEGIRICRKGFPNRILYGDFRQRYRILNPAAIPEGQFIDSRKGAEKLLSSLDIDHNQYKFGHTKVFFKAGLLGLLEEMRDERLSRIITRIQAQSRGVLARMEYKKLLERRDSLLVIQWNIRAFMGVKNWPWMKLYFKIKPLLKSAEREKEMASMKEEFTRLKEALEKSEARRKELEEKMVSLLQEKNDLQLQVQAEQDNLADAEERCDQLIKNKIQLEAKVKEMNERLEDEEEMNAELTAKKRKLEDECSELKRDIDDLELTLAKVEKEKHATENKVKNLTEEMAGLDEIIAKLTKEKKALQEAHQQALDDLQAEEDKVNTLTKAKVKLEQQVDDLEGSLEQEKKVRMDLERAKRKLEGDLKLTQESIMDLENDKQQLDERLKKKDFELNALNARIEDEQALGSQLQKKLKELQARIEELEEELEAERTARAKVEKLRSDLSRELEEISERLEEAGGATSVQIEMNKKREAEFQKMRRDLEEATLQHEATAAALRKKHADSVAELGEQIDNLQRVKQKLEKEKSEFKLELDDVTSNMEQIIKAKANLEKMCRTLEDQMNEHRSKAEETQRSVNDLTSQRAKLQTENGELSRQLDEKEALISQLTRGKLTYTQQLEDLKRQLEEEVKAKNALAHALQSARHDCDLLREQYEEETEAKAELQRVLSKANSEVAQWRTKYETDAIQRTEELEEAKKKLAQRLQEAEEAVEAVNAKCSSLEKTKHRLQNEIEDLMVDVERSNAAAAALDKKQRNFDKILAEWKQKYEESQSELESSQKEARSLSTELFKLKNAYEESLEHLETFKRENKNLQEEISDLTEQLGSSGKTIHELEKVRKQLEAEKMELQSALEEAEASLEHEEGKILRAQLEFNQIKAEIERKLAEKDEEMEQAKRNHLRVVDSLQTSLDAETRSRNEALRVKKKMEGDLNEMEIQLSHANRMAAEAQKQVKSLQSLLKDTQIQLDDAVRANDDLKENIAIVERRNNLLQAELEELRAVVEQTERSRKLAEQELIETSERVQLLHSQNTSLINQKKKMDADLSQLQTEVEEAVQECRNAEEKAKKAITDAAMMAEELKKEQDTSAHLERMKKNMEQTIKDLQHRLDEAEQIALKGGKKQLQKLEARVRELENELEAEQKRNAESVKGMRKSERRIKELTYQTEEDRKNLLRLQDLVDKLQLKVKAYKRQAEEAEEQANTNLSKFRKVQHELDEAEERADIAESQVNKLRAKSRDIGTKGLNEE
T1 sequence (P08590 whole entry partner): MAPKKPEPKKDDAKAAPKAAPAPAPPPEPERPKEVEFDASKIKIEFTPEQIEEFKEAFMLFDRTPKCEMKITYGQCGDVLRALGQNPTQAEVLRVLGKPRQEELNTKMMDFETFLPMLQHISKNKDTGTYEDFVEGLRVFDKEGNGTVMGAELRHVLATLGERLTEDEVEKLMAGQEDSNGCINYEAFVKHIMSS
T1 sequence (P10916 whole entry partner): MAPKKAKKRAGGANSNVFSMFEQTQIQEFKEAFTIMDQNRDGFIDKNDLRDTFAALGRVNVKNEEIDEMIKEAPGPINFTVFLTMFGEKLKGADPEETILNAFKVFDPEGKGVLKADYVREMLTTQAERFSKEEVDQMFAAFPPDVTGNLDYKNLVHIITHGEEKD
Outline: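 Myosin ATPase rate followed via NADH disappearance at 340 nm, coupled through pyruvate kinase and lactate dehydrogenase, using cardiac myofibril pellets (final 1.0 mg/mL) without KCl. IC50 values reflect rate reduction compared with vehicle-treated wells.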

SMILES: CC(CCNC(=O)Cn1nc(-c2ccccc2)ccc1=O)c1ccccc1 (centres unmarked) [IIIc-53, 2-(6-oxo-3-phenylpyridazin-1(6H)-yl)-N-(3-phenylbutyl)acetamide]
- pIC50 ([1]; Table 4C): 4.00 to 5.00
- pIC50 ([2]; Table 5C): < 4.00

SMILES: CCNC(=O)Cn1nc(-c2ccc(OC(F)(F)F)nc2)ccc1=O [Compound I-14, N-ethyl-2-(6-oxo-3-(6-(trifluoromethoxy)pyridin-3-yl)pyridazin-1(6H)-yl)acetamide]
- pIC50 ([1]; Table 4A): 4.00 to 5.00
- pIC50 ([2]; Table 5A): < 4.00

SMILES: O=C(Cn1nc(-c2ccc(OCC(F)(F)F)cc2)ccc1=O)NCc1ccc(CO)cc1 [II-24, N-(4-(hydroxymethyl)benzyl)-2-(6-oxo-3-(4-(2,2,2-trifluoroethoxy)phenyl)pyridazin-1(6H)-yl)acetamide]
- pIC50 ([1]; Table 4B): < 4.00
- pIC50 ([2]; Table 5B): < 4.00

SMILES: CC(C)NC(=O)Cn1nc(-c2ccccc2)ccc1=O [IIIc-63, N-isopropyl-2-(6-oxo-3-phenylpyridazin-1(6H)-yl)acetamide]
- pIC50 ([1]; Table 4C): < 4.00
- pIC50 ([2]; Table 5C): < 4.00

SMILES: C[C@@H](NC(=O)Cn1nc(-c2ccc3c(c2)OCCCO3)ccc1=O)c1ccc(F)cc1 [IIIb-26, (R)-2-(3-(3,4-dihydro-2H-benzo[b][1,4]dioxepin-7-yl)-6-oxopyridazin-1(6H)-yl)-N-(1-(4-fluorophenyl)ethyl)acetamide]
- pIC50 ([1]; Table 4C): 4.00 to 5.00
- pIC50 ([2]; Table 5C): < 4.00

SMILES: CCNC(=O)Cn1nc(-c2ccc(N3CC4(C3)CS(=O)(=O)C4)nc2)ccc1=O [Compound I-32, 2-(3-(6-(2,2-dioxido-2-thia-6-azaspiro[3.3]heptan-6-yl)pyridin-3-yl)-6-oxopyridazin-1(6H)-yl)-N-ethylacetamide]
- pIC50 ([1]; Table 4A): < 4.00
- pIC50 ([2]; Table 5A): < 4.00

SMILES: COc1ccc(-c2ccc(=O)n(CC(=O)NC(C)C)n2)cc1 [IIIb-18, N-isopropyl-2-(3-(4-methoxyphenyl)-6-oxopyridazin-1(6H)-yl)acetamide]
- pIC50 ([1]; Table 4C): 4.00 to 5.00
- pIC50 ([2]; Table 5C): < 4.00

SMILES: COc1ccc(-c2ccc(=O)n(CC(=O)Nc3ccc4c(c3)OCCO4)n2)c(F)c1 [IIIb-15, N-(2,3-dihydrobenzo[b][1,4]dioxin-6-yl)-2-(3-(2-fluoro-4-methoxyphenyl)-6-oxopyridazin-1(6H)-yl)acetamide]
- pIC50 ([1]; Table 4C): > 5.00
- pIC50 ([2]; Table 5C): < 4.00

SMILES: Cn1nccc1CNC(=O)Cn1nc(-c2ccc(OC(F)F)nc2)ccc1=O [Compound I-30, 2-(3-(6-(difluoromethoxy)pyridin-3-yl)-6-oxopyridazin-1(6H)-yl)-N-((1-methyl-1H-pyrazol-5-yl)methyl)acetamide]
- pIC50 ([1]; Table 4A): < 4.00
- pIC50 ([2]; Table 5A): < 4.00

SMILES: CCNC(=O)Cn1nc(-c2ccc(OC(F)F)nc2)ccc1=O [Compound I-7, 2-(3-(6-(difluoromethoxy)pyridin-3-yl)-6-oxopyridazin-1(6H)-yl)-N-ethylacetamide]
- pIC50 ([1]; Table 4A): > 5.00
- pIC50 ([2]; Table 5A): < 4.00

SMILES: CCNC(=O)Cn1nc(-c2ccc(OCCCN(C)C)nc2)ccc1=O [Compound I-28, 2-(3-(6-(3-(dimethylamino)propoxy)pyridin-3-yl)-6-oxopyridazin-1(6H)-yl)-N-ethylacetamide]
- pIC50 ([1]; Table 4A): < 4.00
- pIC50 ([2]; Table 5A): < 4.00

SMILES: COc1ccc(-c2ccc(=O)n(CC(=O)NCc3ccc(F)cc3)n2)cc1 [IIIb-50, N-(4-fluorobenzyl)-2-(3-(4-methoxyphenyl)-6-oxopyridazin-1(6H)-yl)acetamide]
- pIC50 ([1]; Table 4C): < 4.00
- pIC50 ([2]; Table 5C): < 4.00

SMILES: CC[C@H](C)NC(=O)Cn1nc(-c2ccc(C)cc2)ccc1=O [IIIc-2, (S)-N-(sec-butyl)-2-(6-oxo-3-(p-tolyl)pyridazin-1(6H)-yl)acetamide]
- pIC50 ([1]; Table 4C): > 5.00
- pIC50 ([2]; Table 5C): < 4.00

SMILES: COc1ccc(-c2ccc(=O)n(CC(=O)NCc3nccn3C)n2)cc1 [IIIa-33, 2-(3-(4-methoxyphenyl)-6-oxopyridazin-1(6H)-yl)-N-((1-methyl-1H-imidazol-2-yl)methyl) acetamide]
- pIC50 ([1]; Table 4C): < 4.00
- pIC50 ([2]; Table 5C): < 4.00

SMILES: COc1ccc(-c2ccc(=O)n(CC(=O)NC[C@@H]3CC4C=CC3C4)n2)cc1 (stereo partly drawn) [IIIb-39, N-(((2R)-bicyclo[2.2.1]hept-5-en-2-yl)methyl)-2-(3-(4-methoxyphenyl)-6-oxopyridazin-1(6H)-yl)acetamide]
- pIC50 ([1]; Table 4C): < 4.00
- pIC50 ([2]; Table 5C): < 4.00

SMILES: O=C(Cn1nc(-c2ccc3c(c2)OCCO3)ccc1=O)Nc1ccccc1F [IIIb-6, 2-(3-(2,3-dihydrobenzo[b][1,4]dioxin-6-yl)-6-oxopyridazin-1(6H)-yl)-N-(2-fluorophenyl)acetamide]
- pIC50 ([1]; Table 4C): > 5.00
- pIC50 ([2]; Table 5C): 4.00 to 5.00

SMILES: CCC1CCC(CNC(=O)Cn2nc(-c3ccccc3)ccc2=O)CC1 (centres unmarked) [IIIc-55, N-((4-ethylcyclohexyl)methyl)-2-(6-oxo-3-phenylpyridazin-1(6H)-yl)acetamide]
- pIC50 ([1]; Table 4C): 4.00 to 5.00
- pIC50 ([2]; Table 5C): < 4.00

SMILES: COc1ccc(-c2ccc(=O)n(CC(=O)NCC(C)C)n2)cc1 [IIIb-29, N-isobutyl-2-(3-(4-methoxyphenyl)-6-oxopyridazin-1(6H)-yl)acetamide]
- pIC50 ([1]; Table 4C): 4.00 to 5.00
- pIC50 ([2]; Table 5C): < 4.00

SMILES: COc1ccc(-c2ccc(=O)n(CC(=O)Nc3cccc4c3ccn4C)n2)cc1 [IIIb-4, 2-(3-(4-methoxyphenyl)-6-oxopyridazin-1(6H)-yl)-N-(1-methyl-1H-indol-4-yl)acetamide]
- pIC50 ([1]; Table 4C): > 5.00
- pIC50 ([2]; Table 5C): 4.00 to 5.00

SMILES: O=C(Cn1nc(-c2ccccc2)ccc1=O)NCc1ccccc1Cl [IIIc-47, N-(2-chlorobenzyl)-2-(6-oxo-3-phenylpyridazin-1(6H)-yl)acetamide]
- pIC50 ([1]; Table 4C): 4.00 to 5.00
- pIC50 ([2]; Table 5C): < 4.00

SMILES: CC1(NC(=O)Cn2nc(-c3ccc(OC(F)F)nc3)ccc2=O)CCC1 [Compound I-15, 2-(3-(6-(difluoromethoxy)pyridin-3-yl)-6-oxopyridazin-1(6H)-yl)-N-(1-methylcyclobutyl)acetamide]
- pIC50 ([1]; Table 4A): 4.00 to 5.00
- pIC50 ([2]; Table 5A): < 4.00

SMILES: CCNC(=O)Cn1nc(-c2ccc(C3CC3)nc2)ccc1=O [Compound I-12, 2-(3-(6-cyclopropylpyridin-3-yl)-6-oxopyridazin-1(6H)-yl)-N-ethylacetamide]
- pIC50 ([1]; Table 4A): 4.00 to 5.00
- pIC50 ([2]; Table 5A): < 4.00

SMILES: O=C(Cn1nc(-c2ccc(Cl)cc2)ccc1=O)Nc1ccccc1Cl [IIIc-38, N-(2-chlorophenyl)-2-(3-(4-chlorophenyl)-6-oxopyridazin-1(6H)-yl)acetamide]
- pIC50 ([1]; Table 4C): > 5.00
- pIC50 ([2]; Table 5C): < 4.00

SMILES: COc1ccc(-c2ccc(=O)n(CC(=O)NC3CC3)n2)cc1 [IIIb-22, N-cyclopropyl-2-(3-(4-methoxyphenyl)-6-oxopyridazin-1(6H)-yl)acetamide]
- pIC50 ([1]; Table 4C): 4.00 to 5.00
- pIC50 ([2]; Table 5C): < 4.00

SMILES: CCNC(=O)Cn1nc(-c2cnc(OCC3CC(F)(F)C3)nc2)ccc1=O [Compound I-77, 2-(3-(2-((3,3-difluorocyclobutyl)methoxy)pyrimidin-5-yl)-6-oxopyridazin-1(6H)-yl)-N-ethylacetamide]
- pIC50 ([1]; Table 4A): 4.00 to 5.00
- pIC50 ([2]; Table 5A): < 4.00

SMILES: COc1ccc(-c2ccc(=O)n(CC(=O)NCCC3=CCCCC3)n2)c(F)c1 [IIIb-7, N-(2-(cyclohex-1-en-1-yl)ethyl)-2-(3-(2-fluoro-4-methoxyphenyl)-6-oxopyridazin-1(6H)-yl)acetamide]
- pIC50 ([1]; Table 4C): > 5.00
- pIC50 ([2]; Table 5C): < 4.00

SMILES: CCNC(=O)Cn1nc(-c2cnc(NC34CC(F)(C3)C4)nc2)ccc1=O [Compound I-57, N-ethyl-2-(3-(2-((3-fluorobicyclo[1.1.1]pentan-1-yl)amino)pyrimidin-5-yl)-6-oxopyridazin-1(6H)-yl)acetamide]
- pIC50 ([1]; Table 4A): > 5.00
- pIC50 ([2]; Table 5A): < 4.00

SMILES: O=C(Cn1nc(-c2ccccc2)ccc1=O)Nc1ccc(Cl)cc1Cl [IIIc-54, N-(2,4-dichlorophenyl)-2-(6-oxo-3-phenylpyridazin-1(6H)-yl)acetamide]
- pIC50 ([1]; Table 4C): 4.00 to 5.00
- pIC50 ([2]; Table 5C): < 4.00
